Assay results: publication PMC5866837, “Towards a generic physiologically based kinetic model to predict in vivo uterotrophic responses in rats by reverse dosimetry of in vitro estrogenicity data” (Archives of Toxicology, 2017)
Where two headings read alike, the source gives them in different places. Marks after values point to notes of the source that are not given here.

Columns and labels:
[1] = Rapid equilibrium dialysis (RED), fraction unbound in in vitro assay medium; type: in vitro ADME; settings: bovine, assay medium with 5% FCS, RED 5 h at 37 °C, read-out: f ub (fraction unbound)
Description: (§1) The assay medium used in the ER-CALUX and the proliferation assay contains 5% FCS, so the RED assay was performed using the assay medium for these two assays and for rat serum. The f ub was determined using the protocol described by Waters et al. ([2008]). The RED device insert has two chambers, a plasma and a buffer chamber. […] After incubating for 5 h at 37 °C at 250 rpm on an orbital shaker, the system reaches equilibrium (van […] et al. [2011]). 25 μL of post-dialysis samples were collected from the plasma and buffer chambers in separate tubes. Simultaneously, 25 μL of corresponding buffer (PBS) was added to the sample taken from the plasma chamber and the same volume of corresponding rat serum or in vitro medium was added to the sample taken from the buffer chamber. Then, 300 μL cold precipitation buffer (90/10 ACN/water) was added to both samples to precipitate the proteins and release the compound. The samples were put on ice for 30 min and subsequently centrifuged for 15 min at 15,000×g (CT 15RE, Hitachi Koki Co., Ltd). Then, the supernatants were collected for UPLC analysis. By determining the compound concentration in each chamber, the fraction unbound can be calculated with the following equation: f ub = concentration in buffer chamber/concentration in plasma chamber (van […] et al. [2011]; Waters et al. [2008]). […]

uterus weight in rats [2] = test: In vivo uterotrophic assay and BMD analysis (PROAST) of its data; set-up: species or system rat; settings: for BMD (BMD10) / BMDL (BMDL10) / BMDU (BMDU10): PROAST exponential model, BMR 10%, absolute uterus weight; for BMDL (BMDL10) / BMDU (BMDU10): in mg/kg
Description: To that end, a literature research was performed using the search terms uterotrophic assay, rats, oral administration.
Furthermore, benchmark dose (BMD) values derived from the predicted dose–response data were compared with BMD values derived from the dose–response data from the uterotrophic assay as reported in the literature. To that end, BMD modelling was applied on dose–response data using the exponential model for continuous data of the PROAST software from The National Institute for Public Health and the Environment of the Netherlands (RIVM) version 38.9 (Slob [2002]). The benchmark response (BMR) was defined as a 10% increase of response change compared to the control. The predicted dose level with an estimated 10% extra risk obtained is shown as BMD10. The lower and upper limits of the 95% confidence interval on the BMD10 are defined as BMDL10 and BMDU10. In PROAST, BMD values are only reported if the model fit of the data is accepted, so when the software provided BMD values, it was assumed that the data had been adequately modelled. […] For in vivo studies, the absolute uterus weight values were used as input for the response in the continuous model.

[3] = system: uterotrophic growth in rats; test: PBK modelling-based reverse dosimetry of YES assay data and BMD analysis; set-up: species or system rat
From the text: For each in vitro concentration–response dataset from the three assays, the PBK modelling-based reverse dosimetry approach was used to predict the dose levels that are required to reach concentrations in blood that were applied in these assays. As it is assumed that the fraction unbound (f ub) of the parent compound induces the toxicity, the possible difference in the f ub in the in vitro assay medium and in rat serum was corrected prior to applying reverse dosimetry. The f ub of E2 and BPA were determined for in vitro assay media and rat serum as described below. PBK modelling-based reverse dosimetry. […] Consequently, for reverse dosimetry, the in vitro unbound concentration (C ub, in vitro) was set equal to the unbound C max in blood (C ub, in vivo) to determine the dose that is required to cause an in vivo estrogenic effect. The C ub, in vitro was estimated based on the equation: C ub, in vitro = C in vitro × f ub, in vitro, where C in vitro is the nominal concentration applied in the in vitro assay and f ub, in vitro is the fraction unbound of the chemical in the in vitro assay medium as determined using the RED assay. The C ub, in vivo was estimated based on the equation: C ub, in vivo = C in vivo × f ub, in vivo, where C in vivo is the nominal blood concentration in rat and fub, in vivo is the fub in rat serum. Assuming that for the prediction of in vivo toxicity, the C ub, in vitro is the same as C ub, in vivo, the nominal blood concentration in rat can be described by the following equation: C in vivo = C ub, in vivo/f ub, in vivo = C ub, in vitro/f ub, in vivo = (C in vitro × f ub, in vitro)/fub, in vivo. By calculating with the PBK model which dose is required to reach a C in vivo, an in vitro concentration can be translated into an in vivo dose. Performing this exercise for all the concentrations applied in the in vitro assays, the in vitro concentration–response curves were translated into predicted in vivo dose–response curves. […]

human ERs = system: human ERs; set-up: method as in Kolle et al. [2010]; Wang et al. [2014]; settings: ref Kolle et al. [2010]; Wang et al. [2014]; cited from earlier work
uterus weight in rats [4] = settings: oral gavage, cited from earlier work
[5] = set-up: method as in Hansch et al. [1995]; settings: ref Hansch et al. [1995]; cited from earlier work
[6] = rat, oral, read-out: In vivo C max, cited from earlier work
[7] = Rapid equilibrium dialysis (RED), fraction unbound in rat serum; type: in vitro ADME; settings: RED 5 h at 37 °C, read-out: f ub (fraction unbound)
Description: as §1

[8] = in vivo data of Kanno et al. 2003 (doses in mg/kg bw)
[9] = in vivo data of Tinwell and Ashby 2004 (doses in mg/kg bw)
[10] = in vivo data of Odum et al. 1997 (doses in mg/kg bw)

CC(C)(c1ccc(O)cc1)c1ccc(O)cc1 [BPA, bisphenol A]
fraction unbound at 5 h, 5 µM [1]: 0.461 ± 0.035
Fold difference in BMD10 values between the two in vivo studies (uterus weight in rats [2]; Kanno et al. 2003 vs Tinwell and Ashby 2004): 25.8 fold
BMD (BMD10) (uterus weight in rats [2]; [8]): 207 mg/kg
BMDL (BMDL10) (uterus weight in rats [2]; [8]): 62.66
BMDU (BMDU10) (uterus weight in rats [2]; [8]): 516.80
BMD (BMD10) (uterus weight in rats [2]; [9]): 8.02 mg/kg
BMDL (BMDL10) (uterus weight in rats [2]; [9]): 1.00
BMDU (BMDU10) (uterus weight in rats [2]; [9]): 37.13
Predicted BMDL10 fold higher than BMDL10 of the in vivo data ([3]; in vivo data from Tinwell and Ashby (2004)): 4.7 fold
Predicted BMDL10 fold lower than BMDL10 of the in vivo data ([3]; in vivo data of Kanno et al. (2003)): 13.4 fold
Higher concentrations required for an estrogenic response in the YES assay than in MCF-7/BOS proliferation and U2OS ER-CALUX assays (human ERs): 3 orders of magnitude
Mean value of uterus weight (uterus weight in rats [4]; rat (AP), 10 mg/kg bw, ref Tinwell and Ashby 2004): 23.9 mg
Mean value of uterus weight (uterus weight in rats [4]; rat (AP), 100 mg/kg bw, ref Tinwell and Ashby 2004): 29.0 mg
Mean value of uterus weight (uterus weight in rats [4]; rat (AP), 300 mg/kg bw, ref Tinwell and Ashby 2004): 38.5 mg
Mean value of uterus weight (uterus weight in rats [4]; rat (AP), 600 mg/kg bw, ref Tinwell and Ashby 2004): 41.4 mg
Mean value of uterus weight (uterus weight in rats [4]; rat (AP), 800 mg/kg bw, ref Tinwell and Ashby 2004): 59.0 mg
Mean value of uterus weight (uterus weight in rats [4]; rat (Sprague–Dawley), 60 mg/kg bw, ref Kanno et al. 2003): 26.8 mg
Mean value of uterus weight (uterus weight in rats [4]; rat (Sprague–Dawley), 200 mg/kg bw, ref Kanno et al. 2003): 30.1 mg
Mean value of uterus weight (uterus weight in rats [4]; rat (Sprague–Dawley), 375 mg/kg bw, ref Kanno et al. 2003): 30.4 mg
Mean value of uterus weight (uterus weight in rats [4]; rat (Sprague–Dawley), 600 mg/kg bw, ref Kanno et al. 2003): 37.0 mg
Mean value of uterus weight (uterus weight in rats [4]; rat (Sprague–Dawley), 1000 mg/kg bw, ref Kanno et al. 2003): 44.1 mg
Log P ow [5]: 3.3^a
Cmax ([6]; 10 mg/kg bw, ref Pottenger et al. (2000)): 175 nM
Cmax ([6]; 100 mg/kg bw, ref Pottenger et al. (2000)): 9880 nM
fraction unbound at 5 h, 5 µM [7]: 0.04 ± 0.001

C[C@]12CC[C@@H]3c4ccc(O)cc4CC[C@H]3[C@@H]1CC[C@@H]2O [E2, 17β-estradiol]
fraction unbound at 5 h, 5 µM [1]: 0.628 ± 0.012
BMD (BMD10) (uterus weight in rats [2]; [10]): 0.0134 mg/kg
BMDL (BMDL10) (uterus weight in rats [2]; [10]): 0.002915
BMDU (BMDU10) (uterus weight in rats [2]; [10]): 0.03371
Predicted BMDL10 lower than that of BPA ([3]; YES assay-based prediction): 4 orders of magnitude
Higher concentrations required for an estrogenic response in the YES assay than in MCF-7/BOS proliferation and U2OS ER-CALUX assays (human ERs): 2 orders of magnitude
Mean value of uterus weight (uterus weight in rats [4]; rat (AP), 0.01 mg/kg bw, ref Odum et al., 1997): 37.5 mg
Mean value of uterus weight (uterus weight in rats [4]; rat (AP), 0.02 mg/kg bw, ref Odum et al., 1997): 39 mg
Mean value of uterus weight (uterus weight in rats [4]; rat (AP), 0.04 mg/kg bw, ref Odum et al., 1997): 38.3 mg
Mean value of uterus weight (uterus weight in rats [4]; rat (AP), 0.10 mg/kg bw, ref Odum et al., 1997): 68.1 mg
Mean value of uterus weight (uterus weight in rats [4]; rat (AP), 0.20 mg/kg bw, ref Odum et al., 1997): 70.9 mg
Mean value of uterus weight (uterus weight in rats [4]; rat (AP), 0.40 mg/kg bw, ref Odum et al., 1997): 101.7 mg
Log P ow [5]: 4.0^a
Cmax ([6]; 0.02 mg/kg bw, ref Bawarshi-Nassar et al. (1989)): 0.6 nM
Cmax ([6]; 0.08 mg/kg bw, ref Bawarshi-Nassar et al. (1989)): 2.7 nM
fraction unbound at 5 h, 5 µM [7]: 0.05 ± 0.005
